Results published in patent US7323490B2, “Pyrrole compounds and uses thereof” (Ambit Biosciences Corporation, priority 2003, dated 2008).

Tests used:
[1] = target: T1, NQO2 (Rattus norvegicus, UniProt Q6AY80); assay: NQO2 binding pocket competition experiment, rat brain protein extract; conditions: competitors menadione, quercetin, FAD
T1 construct: from tissue; host or cells: rat liver or brain protein extract
T1 sequence (Q6AY80 1-231): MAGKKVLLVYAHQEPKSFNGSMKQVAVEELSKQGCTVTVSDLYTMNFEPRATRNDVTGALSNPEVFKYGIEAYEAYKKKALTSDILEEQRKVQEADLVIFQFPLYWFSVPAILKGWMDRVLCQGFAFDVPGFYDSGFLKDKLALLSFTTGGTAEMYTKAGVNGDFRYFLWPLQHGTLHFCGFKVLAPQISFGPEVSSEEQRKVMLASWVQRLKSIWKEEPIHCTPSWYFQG
Description: The crystal structure of the NQO2 protein has shown that this protein contains three distinct binding pockets. […] The data were obtained by loading the pooled eluates on a SDS-PAGE gel followed by silver staining.

[2] = target: T2, PDE6D::HA11 fusion protein (Homo sapiens, UniProt O43924); assay: Binding assay with rabbit reticulocyte lysate-produced human PDE6D; conditions: absence or presence of 10 μM non-immobilized atorvastatin; dot blot
T2 construct: made in house; host or cells: coupled transcription-translation in rabbit reticulocyte lysate (pTNT vector)

[3] = target: T3, rat liver NQO2 (Rattus norvegicus, UniProt Q6AY80); assay: Binding curve assay, rat liver NQO2 and atorvastatin bait; conditions: rat liver extract; semi-quantitative, densitometric scanning of silver-stained gel; read-out: apparent Kd NQO2
T3 construct: from tissue; host or cells: rat liver protein extract
T3 sequence (Q6AY80 1-231): T1 sequence (Q6AY80 1-231)

[4] = target: PDE6D (Homo sapiens, UniProt O43924); assay: phage-based competition binding screen at 2 μM; design: made in house; host or cells: phage; conditions: 2 μM competitor, duplicate
Method: Forty-four molecules were screened for PDE6D binding activity in a standard phage-based competition binding assay, as described in co-pending U.S. patent applications Ser. No. 10/115,442, filed 2 Apr. 2002, and Ser. No. 10/406,797 filed on 2 Apr. 2003 (or PCT International Application PCT/US03/10247 filed 2 Apr. 2003). All compounds were screened in duplicate (duplicate sets of bars) at a concentration of 2 μM.

[5] = target: T4, CLB2 (Homo sapiens, UniProt P22676); assay: T7 phage display competition binding assay (immobilized atorvastatin), CLB2; conditions: soluble competitor vs atorvastatin-coated affinity matrix; T7 phage displaying CLB2
T4 construct: made in house; host or cells: T7 phage amplified in E. coli
T4 sequence (P22676 1-271): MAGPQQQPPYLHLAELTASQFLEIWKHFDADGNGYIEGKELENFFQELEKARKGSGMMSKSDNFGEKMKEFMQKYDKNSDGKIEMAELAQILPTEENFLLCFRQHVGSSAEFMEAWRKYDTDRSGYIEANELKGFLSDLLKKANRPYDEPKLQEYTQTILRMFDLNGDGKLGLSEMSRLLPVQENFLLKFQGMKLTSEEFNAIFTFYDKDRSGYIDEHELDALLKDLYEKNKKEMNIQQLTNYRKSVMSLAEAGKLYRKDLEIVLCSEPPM
Description: The T7 phage displaying human PDE6D and CLB2 were obtained following the procedure of WO 01/18234, published Mar. 15, 2001, and U.S. patent applications Ser. No. 10/115,442, “Phage Display Affinity Filter and Forward Screen,” filed Apr. 2, 2002 and Ser. No. 10/214,654, “Uncoupling DNA Insert Propagation and Protein Display,” filed Aug. 7, 2002. […] The phage eluate was then amplified by growth in E. coli and the affinity enrichment procedure was repeated.
The dissociation constants, Kd's, for the interaction between the pyrrole compounds and the novel targets were obtained following the procedure of the co-pending patent applications U.S. Ser. Nos. 10/115,442, “Phage Display Affinity Filter and Forward Screen,” filed Apr. 2, 2002 and 60/480,587, “Protein Family Profiling Tool and Methods,” filed Jun. 20, 2003.

| Structure (SMILES) | NQO2 binding pocket [1] | binding of PDE6D::HA11 fusion protein to immobilized atorvastatin bait [2] | Kd [3] [nM] | fraction of PDE6D-displaying phage bound to immobilized atorvastatin (screen outcome) [4] | Kd [5] [nM] |
| --- | --- | --- | --- | --- | --- |
| CC(C)c1c(C(=O)Nc2ccccc2)c(-c2ccccc2)c(-c2ccc(F)cc2)n1CC[C@@H](O)C[C@@H](O)CC(=O)O [atorvastatin, reference compound] | binds the electron donor NRH pocket | PDE6D bound to atorvastatin | ~500 |  |  |
| CC(C)c1[nH]c(-c2ccc(F)cc2)c(-c2ccccc2)c1C(=O)Nc1ccccc1 [Compound 781430] |  |  |  | candidate lead compounds | 940 |
